Test results as given in paper PMC10303166, “Design, Synthesis, Biological Evaluation, and Molecular Docking Study of 4,6-Dimethyl-5-aryl/alkyl-2-[2-hydroxy-3-(4-substituted-1-piperazinyl)propyl]pyrrolo[3,4-c]pyrrole-1,3(2H,5H)-diones as Anti-Inflammatory Agents with Dual Inhibition of COX and LOX” (Pharmaceuticals, 2023).
Where two headings read alike, the source gives them in different places.

How the values were obtained:
NHDF cells = test: SRB viability assay on NHDF cells; assay type: cell-based; details: Homo sapiens, 48 h incubation with NHDF cells, tested 10-100 µM, mean (SD)
Procedure: The NHDF (CC-2511) was purchased from Lonza, Basel. This line was derived from human dermal fibroblasts grown in 5% CO2 with 95% humidity at 37 °C. Cells were cultured with 10% FBS and 2 mM L-glutamine, 1.25 μg/mL Amphotericin B, and 100 μg/mL Gentamicin. Twice a week, the morphology and confluence were evaluated under microscopy. The confluence was above 70%, and the NHDF cells were subcultured with TrypLE solution.
The new 2-[2-hydroxy-3-(4-substituted-1-piperazinyl)propyl] derivatives were dissolved in DMSO to a concentration of 10 mM and stored at −20 °C. The samples were prepared in four different concentrations of compounds (10 µM, 25 µM, 50 µM, and 100 µM), so the concentration of DMSO for cells was […].
Viability evaluation was performed using the Sulforhodamine B (SRB) dye. The SRB assay was carried out 24 h after seeding. The culture plates were fixed with a cold TCA solution with a final concentration of 10% w/v for 1 h at 4–8 °C. This plate was T0 control. T0 is cell before treatment tested compounds. The supernatant was removed from the culture. The compounds were added and incubated for 48 h at 5% CO2, 95% humidity, and 37 °C. The culture was fixed with a cold TCA solution. The same condition was performed on the T0 plate. […] The absorbance was measured at 540 nm with a Varioskan LUX microplate reader (Thermo Scientific, Waltham, MA, USA).

COX-2 = molecular target: T1, COX-2 (Homo sapiens, UniProt P35354); test: Colorimetric cyclooxygenase inhibition assay (COX-2); assay type: biochemical; details: for IC50: incubation for 2 min with the tested compounds at a concentration of 100 µM, mean (SD); for COX Selectivity Ratio IC50(COX-2)/IC50(COX-1): ratio COX-2 over COX-1
T1 sequence (P35354 18-604): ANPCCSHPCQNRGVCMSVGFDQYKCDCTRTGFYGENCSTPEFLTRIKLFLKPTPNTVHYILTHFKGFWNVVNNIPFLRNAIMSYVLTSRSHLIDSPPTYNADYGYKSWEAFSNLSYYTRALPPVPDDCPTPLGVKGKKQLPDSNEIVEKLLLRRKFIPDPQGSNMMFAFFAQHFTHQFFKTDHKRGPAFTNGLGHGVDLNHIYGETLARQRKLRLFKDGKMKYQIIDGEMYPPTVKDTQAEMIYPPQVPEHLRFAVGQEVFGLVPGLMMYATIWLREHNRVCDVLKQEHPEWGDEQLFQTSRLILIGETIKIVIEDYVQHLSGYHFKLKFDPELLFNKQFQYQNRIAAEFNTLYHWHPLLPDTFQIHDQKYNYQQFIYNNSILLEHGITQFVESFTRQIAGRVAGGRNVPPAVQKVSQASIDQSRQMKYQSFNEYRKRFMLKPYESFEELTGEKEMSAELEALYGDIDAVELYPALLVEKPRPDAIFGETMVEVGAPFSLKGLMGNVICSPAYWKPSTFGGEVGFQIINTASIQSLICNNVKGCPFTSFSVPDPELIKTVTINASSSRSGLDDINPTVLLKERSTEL
Procedure: COX peroxidase activity was evaluated by colorimetric evaluation of the occurrence of the oxidized form of N, N, N′, N′-tetramethyl-p-phenylenediamine (TMPD). The reduction of PGG2 (prostaglandin G2) to PGH2 is due to the oxidation of TMPD. […] The tested compounds wells included 110 μL Assay Buffer, 10 μL Hemin, and 40 μL solution of tested compounds, which was dissolved in DMSO in a final concentration of 10 mM. These samples were performed in three replicates for every compound. […] Subsequently, 20 μL substrate, i.e., arachidonic acid, was added. The entire plate was shaken for 5 min. The result is a change in color measured at 590 nm with a Varioskan LUX microplate reader (Thermo Scientific, Waltham, MA, USA).

15-LOX = 15-LOX (Glycine max, UniProt P08170); test: Lipoxygenase inhibitor screening assay; assay type: biochemical; details: 15-LO, arachidonic acid substrate; mean (SD)
Chain of 15-LOX (P08170 whole entry): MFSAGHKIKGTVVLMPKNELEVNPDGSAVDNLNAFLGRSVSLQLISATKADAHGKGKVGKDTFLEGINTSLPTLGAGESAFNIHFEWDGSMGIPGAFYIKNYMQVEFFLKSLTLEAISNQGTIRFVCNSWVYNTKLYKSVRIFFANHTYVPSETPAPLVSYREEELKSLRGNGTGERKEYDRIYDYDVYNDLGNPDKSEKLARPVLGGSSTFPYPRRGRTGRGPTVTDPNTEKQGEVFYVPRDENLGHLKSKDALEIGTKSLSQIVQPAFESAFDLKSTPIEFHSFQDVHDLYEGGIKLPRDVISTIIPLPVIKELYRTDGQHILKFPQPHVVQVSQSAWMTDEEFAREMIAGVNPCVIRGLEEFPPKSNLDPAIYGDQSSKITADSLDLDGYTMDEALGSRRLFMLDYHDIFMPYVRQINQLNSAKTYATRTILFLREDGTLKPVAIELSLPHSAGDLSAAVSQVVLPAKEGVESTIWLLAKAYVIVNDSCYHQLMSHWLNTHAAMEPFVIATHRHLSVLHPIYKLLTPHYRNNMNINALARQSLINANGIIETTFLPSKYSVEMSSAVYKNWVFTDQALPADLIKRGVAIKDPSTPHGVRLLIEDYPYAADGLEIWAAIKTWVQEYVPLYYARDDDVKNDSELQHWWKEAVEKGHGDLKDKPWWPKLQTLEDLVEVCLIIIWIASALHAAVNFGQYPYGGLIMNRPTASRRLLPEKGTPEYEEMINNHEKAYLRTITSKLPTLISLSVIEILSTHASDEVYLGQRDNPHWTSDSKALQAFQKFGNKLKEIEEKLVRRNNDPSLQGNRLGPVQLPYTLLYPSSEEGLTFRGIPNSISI
Procedure: The assay detects and measures the hydroperoxides produced in the lipoxygenation reduction using a purified lipoxygenase (LO). Blank wells were prepared that contained 100 μL Assay buffer. The positive control included 10 μL 1x assay buffer and 90 μL 15-LO, but 100% of the Initial activity samples contained 90 μL 15-LO and 10 μL methanol. Samples with test compounds were prepared in triplicate, containing 90 µL of 15-LO and 10 µL of test compound at the assayed concentration of 10 mM. All samples prepared in this way were incubated for 5 min at room temperature. Subsequently, the substrate, i.e., arachidonic acid, was added. The entire test plate was shaken for 10 min. 100 µL of chromogen was added to the samples. The entire plate was shaken for 5 min. The absorbance was read at 490 nm in a VariuScan microplate reader.

[1] = parameters: method as in PMID 10683864; details: "writhing syndrome" test; cited from earlier work
[2] = parameters: method as in PMID 10683864; details: "hot plate" test; cited from earlier work

Compound	IC50 (COX-2)	COX Selectivity Ratio IC50(COX-2)/IC50(COX-1) (COX-2)	melting point	IC50 (NHDF cells)	Lipoxygenase Inhibition Assay IC50 LOX (15-LOX)	Analgesic activity: acted up to the dose (fraction of LD50) [1]	Analgesic activity: acted up to the dose (fraction of LD50) [2]
Cc1c2c(c(C)n1-c1ccccc1)C(=O)N(CC(O)CN1CCN(c3ccc(F)cc3F)CC1)C2=O (stereo not drawn) [3d, 4,6-dimethyl-5-phenyl-2-[2-hydroxy-3-[4-(2,4-difluorophenyl)-1-piperazinyl]propyl]pyrrolo[3,4-c]pyrrole-1,3(2H,5H)-dione]	59.7 ± 0.03 µM	0.73	143 to 145 °C	86.55 ± 0.05 µM			
CCOc1ccccc1N1CCN(CC(O)CN2C(=O)c3c(c(C)n(-c4cccc(Cl)c4)c3C)C2=O)CC1 (stereo not drawn) [3g, 4,6-dimethyl-5-(3-chlorophenyl)-2-[2-hydroxy-3-[4-(o-ethoxyphenyl)piperazin-1-yl]propyl]pyrrolo[3,4-c]pyrrole-1,3(2H,5H)-dione]	60.55 ± 0.09 µM	0.70	129 to 131 °C				
CCCCn1c(C)c2c(c1C)C(=O)N(CC(O)CN1CCN(c3ccccc3C#N)CC1)C2=O (stereo not drawn) [3f, 4,6-dimethyl-5-butyl-2-[2-hydroxy-3-[4-(o-cyjanophenyl)piperazin-1-yl]propyl]pyrrolo[3,4-c]pyrrole-1,3(2H,5H)-dione]	60.36 ± 0.06 µM		154 to 156 °C		higher activity against LOX than Zileuton		
Cc1c2c(c(C)n1-c1ccccc1)C(=O)N(CC(O)CN1CCN(c3ccccc3)CC1)C2=O (stereo not drawn) [II]						1/40	1/20
CCCCn1c(C)c2c(c1C)C(=O)N(CC(O)CN1CCN(c3ccccc3)CC1)C2=O (stereo not drawn) [Compound I]						1/80	1/20
CCCCn1c(C)c2c(c1C)C(=O)N(CC(O)CN1CCN(c3ccc(F)cc3F)CC1)C2=O (stereo not drawn) [3e, 4,6-dimethyl-5-butyl-2-[2-hydroxy-3-[4-(2,4-difluorophenyl)piperazin-1-yl]propyl]pyrrolo[3,4-c]pyrrole-1,3(2H,5H)-dione]	56.43 ± 0.03 µM	0.64	139 to 141 °C		higher activity against LOX than Zileuton		
CCCCn1c(C)c2c(c1C)C(=O)N(CC(O)CN1CCN(S(C)(=O)=O)CC1)C2=O (stereo not drawn) [3o, 4,6-dimethyl-5-butyl-2-[2-hydroxy-3-(N-methylsulphonylpiperazin-1-yl)-propyl]pyrrolo[3,4-c]pyrrole-1,3(2H,5H)-dione]	59.42 ± 0.06 µM	0.85	139 to 141 °C	49.47 ± 0.05 µM			
Cc1c2c(c(C)n1-c1cccc(Cl)c1)C(=O)N(CC(O)CN1CCN(c3ncccn3)CC1)C2=O (stereo not drawn) [3j, 4,6-dimethyl-5-(3-chlorophenyl)-2-[2-hydroxy-3-(4-pyrimidynylpiperazin-1-yl)propyl]pyrrolo[3,4-c]pyrrole-1,3(2H,5H)-dione]	60.28 ± 0.02 µM	0.79	179 to 181 °C				
CCCCn1c(C)c2c(c1C)C(=O)N(CC(O)CN1CCN(c3ncccn3)CC1)C2=O (stereo not drawn) [3k, 4,6-dimethyl-5-butyl-2-[2-hydroxy-3-(4-pyrimidynyl-1-piperazinyl)propyl]pyrrolo[3,4-c]pyrrole-1,3(2H,5H)-dione]	60.83 ± 0.01 µM	0.73	182 to 184 °C				
Cc1c2c(c(C)n1-c1ccccc1)C(=O)N(CC(O)CN1CCN(c3ccc(F)cc3)CC1)C2=O (stereo not drawn) [3c, 4,6-dimethyl-5-phenyl-2-[2-hydroxy-3-[4-(p-fluorophenyl)piperazin-1-yl]propyl]pyrrolo[3,4-c]pyrrole-1,3(2H,5H)-dione]	60.05 ± 0.03 µM	0.76	182 to 184 °C				

Further lines, with some results ahead:

IC50 (COX-2)	COX Selectivity Ratio IC50(COX-2)/IC50(COX-1) (COX-2)	melting point	Compound	IC50 (NHDF cells)	Lipoxygenase Inhibition Assay IC50 LOX (15-LOX)	Analgesic activity: acted up to the dose (fraction of LD50) [1]	Analgesic activity: acted up to the dose (fraction of LD50) [2]
59.77 ± 0.05 µM	0.76	180 to 182 °C	CCCCn1c(C)c2c(c1C)C(=O)N(CC(O)CN1CCN(c3ccc(Br)cc3)CC1)C2=O (stereo not drawn) [3b, 4,6-dimethyl-5-butyl-2-[2-hydroxy-3-[4-(p-bromophenyl)piperazin-1-yl]propyl]pyrrolo[3,4-c]pyrrole-1,3(2H,5H)-dione]				
59.34 ± 0.04 µM	0.75	135 to 138 °C	Cc1c2c(c(C)n1-c1ccccc1)C(=O)N(CC(O)CN1CCN(c3cccc(C(F)(F)F)c3)CC1)C2=O (stereo not drawn) [3h, 4,6-dimethyl-5-phenyl-2-[2-hydroxy-3-[4-(m-trifluoromethylphenyl)piperazin-1-yl]propyl]pyrrolo[3,4-c]pyrrole-1,3(2H,5H)-dione]				
61 ± 0.04 µM	0.80	136 to 138 °C	Cc1c2c(c(C)n1-c1ccccc1)C(=O)N(CC(O)CN1CCN(S(C)(=O)=O)CC1)C2=O (stereo not drawn) [3m, 4,6-dimethyl-5-phenyl-2-[2-hydroxy-3-(N-methylsulphonylpiperazin-1-yl)-propyl]pyrrolo[3,4-c]pyrrole-1,3(2H,5H)-dione]				
60.25 ± 0.07 µM	0.71	119 to 122 °C	Cc1c2c(c(C)n1-c1cccc(Cl)c1)C(=O)N(CC(O)CN1CCN(S(C)(=O)=O)CC1)C2=O (stereo not drawn) [3n, 4,6-dimethyl-5-(3-chlorophenyl)-2-[2-hydroxy-3-(N-methylsulphonylpiperazin-1-yl)-propyl]pyrrolo[3,4-c]pyrrole-1,3(2H,5H)-dione]				
60.16 ± 0.08 µM	0.73	116 to 118 °C	CCCCn1c(C)c2c(c1C)C(=O)N(CC(O)CN1CCN(c3ccc(C)cc3)CC1)C2=O (stereo not drawn) [3a, 4,6-dimethyl-5-butyl-2-[2-hydroxy-3-[4-(p-methylphenyl)piperazin-1-yl]propyl]pyrrolo[3,4-c]pyrrole-1,3(2H,5H)-dione]				
57.93 ± 0.02 µM	0.71		Cc1c2c(c(C)n1-c1ccccc1)C(=O)N(CC(O)CN1CCN(c3ncccn3)CC1)C2=O (stereo not drawn) [3i, 4,6-dimethyl-5-phenyl-2-[2-hydroxy-3-(4-pyrimidynylpiperazin-1-yl)propyl]pyrrolo[3,4-c]pyrrole-1,3(2H,5H)-dione]				
